Results as given in US20240368556A1, “LIVER ORGANOID MODEL FOR HYPERBILIRUBINEMIA AND METHODS OF MAKING AND USING SAME” (CHILDREN’S HOSPITAL MEDICAL CENTER, priority 2021, published 2024).
“Also recorded” adds a separate entry of the source.

Columns and labels:
Format in all cases: cell-based, human
CYP1A2 = CYP1A2 activity assay (P450-Glo) after omeprazole
Protocol: (§1) CYP3A4 and CYP1A2 assays were performed by harvesting HLOs, washing in PBS, plating them into a 96 well assay plate, and treating them with rifampicin and omeprazole, respectively, for 24 hours. The assays were then performed using P450-Glo CYP3A4 and CYP1A2 Assay (Promega) and normalized using CellTiter-Glo Luminescent Cell Viability Assay according to manufacturer instructions.

liver organoids [1] = assay: Immunofluorescence of mature liver enzymes and transport proteins; conditions: 1 mg/L bilirubin (FIGS. 1F-H)
Protocol: For maturation induction in HLOs, the day 15 organoids were fed with complete HCM with supplements in addition to low dose bilirubin (1 mg/L). This treatment was continued until day 30 when the organoids were harvested. […] For whole mount immunostains, the organoids were fixed in 4% PFA, permeabilized with 0.1% PBST, blocked with 5% Normal Donkey Serum in 0.1% PBST, and stained with the appropriate primary and secondary antibodies. The images were captured on the Nikon A1 inverted confocal microscope.

liver organoids [2] = assay: Hyperbilirubinemia induction: HLOs treated with varying bilirubin concentrations (brightfield); conditions: bilirubin 1, 2, 5 or 10 mg/L, 1 and 4 days (FIG. 3B)
Protocol: (§2) On day 27, the mature organoids were treated with bilirubin (1-10 mg/L), doxycycline (100 ng/mL; added 3 days prior to activate gene expression) and/or additionally with drugs such as hydrocortisone, dexamethasone, ketoconazole and mifepristone (1-2 μM for each) for 5 days and then harvested for downstream assays. Bilirubin assay was performed using a colorimetric kit (ab235627 from Abcam). RNA was isolated using the RNeasy mini kit (Qiagen, Hilden, Germany). Reverse transcription was carried out using the High-Capacity cDNA Reverse Transcription Kit (Thermo Fisher Scientific Inc.) according to manufacturer's protocol. qPCR was carried out using TaqMan gene expression master mix (Applied Biosystems) on a QuantStudio 5 Real-Time PCR System (Thermo Fisher Scientific Inc.). All primers and probe information for each target gene was obtained from the Universal ProbeLibrary Assay Design Center (available on the World Wide Web at lifescience.roche.com/en_us/brands/universal-probe-library.html). Images were captured on the KEYENCE BZ-X710 Fluorescence Microscope (Keyence).

CNS HLOs = assay: Bilirubin toxicity in Crigler-Najjar syndrome liver organoids (brightfield); conditions: 10 mg/L bilirubin, inactive UGT1A1 gene (FIG. 3H)
Protocol: On day 27, the mature organoids were treated with bilirubin (1-10 mg/L), doxycycline (100 ng/mL; added 3 days prior to activate gene expression) and/or additionally with drugs such as hydrocortisone, dexamethasone, ketoconazole and mifepristone (1-2 μM for each) for 5 days and then harvested for downstream assays. […] Images were captured on the KEYENCE BZ-X710 Fluorescence Microscope (Keyence).

CYP3A4 = CYP3A4 activity assay (P450-Glo) after rifampicin
Protocol: as §1

mGULO organoids = assay: Survival and morphology of mGULO organoids with doxycycline induction; conditions: Dox 10, 100, 1000 ng/mL, with bilirubin (FIG. 2O)
UGT1A1 = assay: RT-qPCR of UGT1A1 in liver organoids; conditions: 10 mg/L bilirubin plus drug vs 10 mg/L bilirubin alone (FIG. 4E)
Protocol: as §2

liver organoids [3] = assay: Bilirubin assay measuring unconjugated and conjugated bilirubin in liver organoids; conditions: liver organoids in 10 mg/L bilirubin; drug 1 or 5 μM (FIG. 4B, 4D)
Protocol: Bilirubin levels were measured by collecting the supernatant from HLOs treated with bilirubin and serum from rats. The supernatant and serum were assayed with Bilirubin Assay Kit (Total and Direct, Colorimetric) (abcam) and Bilirubin Assay Kit (Sigma-Aldrich) according to manufacturer instructions.

NRF2 = assay: RT-qPCR of NRF2 in liver organoids; conditions: 10 mg/L bilirubin plus drug vs 10 mg/L bilirubin alone (FIG. 4E)
Protocol: as §2

liver organoids [4] = assay: RNA sequencing of HLOs; conditions: 10 mg/L bilirubin and 1 μM mifepristone vs control (FIG. 4F)
Protocol: RNA was isolated using the RNeasy mini kit (Qiagen). […] All the samples were amplified with TaqMan Gene Expression Assays and normalized with 18S rRNA Endogenous Control. For RNA sequencing, the extracted RNA quality was evaluated with an Agilent 2100 Bioanalyzer (Agilent). A sequence library was prepared using a TruSeq Stranded mRNA kit (Illumina) and sequenced using NovaSeq 6000 (Illumina). Reads were aligned to human genome assembly hg38 and quantified using the quasi-mapper Salmon (v1.8.0). Gene-expression analysis was performed using the R Bioconductor package DESeq2 (v1.36.0). The read count matrix was normalized by size factors, and a variance stabilizing transformation (VST) was applied to the normalized expression data. The data was visualized using clusterProfiler (v.4.4.1) and pheatmap (v1.0.12) packages. […] RNA sequencing parameters were 150 bp paired-end sequencing at a depth of 20M reads per samples. Fastq read files for each sample were obtained and then aligned using Salmon, a quasi-mapping tool that aligns and quantifies transcripts using RNA-seq data. Raw transcript counts and normalized transcripts per million (TPM) values were obtained and analyzed for differential expression with DESeq2. […]

UGT1A1 gene = assay: ChIP-PCR and ChIP-qPCR of hyperbilirubinemic organoids; conditions: 10 mg/L bilirubin, 1 μM drug (FIG. 4H)

C=CC1=C(C)/C(=C/c2[nH]c(Cc3[nH]c(/C=C4\NC(=O)C(C)=C4C=C)c(C)c3CCC(=O)O)c(CCC(=O)O)c2C)NC1=O [bilirubin] was tested. Which CYP1A2 activity (CYP1A2; 1 mg/L bilirubin-treated organoids, after omeprazole, vs untreated control (FIG. 1E)) did it give?
Its CYP1A2 activity is “increased cytochrome activity”.

And the “expression of CYP2E1, CYP7A1, MPR1, MRP3, PROX1, OATP2 (immunofluorescence)” value (liver organoids [1])?
Its value is “expressed mature liver enzymes and transport proteins”.

And the “organoid morphology and intracellular bilirubin accumulation” value (liver organoids [2])?
The value was “significant morphological changes and intracellular accumulation of bilirubin”.

And the “organoid toxicity in CNS HLOs” value (CNS HLOs)?
The value was “liver organoid toxicity”.

And the CYP3A4 activity (CYP3A4; 1 mg/L bilirubin-treated organoids, after rifampicin, vs untreated control (FIG. 1E))?
Its CYP3A4 activity is “increased cytochrome activity”.

Which “gross morphology of mGULO organoids” value (mGULO organoids) does the source give for C[C@H]1c2cccc(O)c2C(=O)C2=C(O)[C@]3(O)C(=O)C(C(N)=O)=C(O)[C@@H](N(C)C)[C@@H]3[C@@H](O)[C@@H]21 [doxycycline] here?
Its value is “maintain their gross morphology”.

And the CYP1A2 activity (CYP1A2; mGULO organoids, Dox plus low dose bilirubin, omeprazole insult (FIG. 2P))?
The CYP1A2 activity was “increased”.

What about the CYP3A4 activity (CYP3A4; mGULO organoids, Dox plus low dose bilirubin, rifampicin insult (FIG. 2P)) of the same compound?
The CYP3A4 activity was “increased”.

How did the UGT1A1 expression (UGT1A1) turn out when C[C@]12CCC(=O)C=C1CC[C@@H]1[C@@H]2[C@@H](O)C[C@@]2(C)[C@H]1CC[C@]2(O)C(=O)CO [hydrocortisone] was run?
Its UGT1A1 expression is “depressed”.

And the “bilirubin conjugation (unconjugated vs conjugated bilirubin)” value (liver organoids [3])?
The value was “decreased bilirubin conjugation ability”.

CC(=O)N1CCN(c2ccc(OCC3COC(Cn4ccnc4)(c4ccc(Cl)cc4Cl)O3)cc2)CC1 (stereo not drawn) [ketoconazole] was tested. Which UGT1A1 expression (UGT1A1) did it give?
Its UGT1A1 expression is “elevated”.

What about the “bilirubin conjugation (unconjugated vs conjugated bilirubin)” value (liver organoids [3]) of the same compound?
Its value is “improved conjugation and metabolism of bilirubin; also recorded: increased bilirubin conjugation”.

And the NRF2 expression (NRF2)?
Its NRF2 expression is “improved”.

With CC#C[C@]1(O)CC[C@H]2[C@@H]3CCC4=CC(=O)CCC4=C3[C@@H](c3ccc(N(C)C)cc3)C[C@@]21C [mifepristone] as the compound, how does the UGT1A1 expression (UGT1A1) read?
The UGT1A1 expression was “elevated”.

What about the “gene expression / enriched pathways” value (liver organoids [4]) of the same compound?
The value was “enrichment of many genes involved in liver function”.

What about the “bilirubin conjugation (unconjugated vs conjugated bilirubin)” value (liver organoids [3]) of the same compound?
The value was “improved conjugation and metabolism of bilirubin; also recorded: increased bilirubin conjugation”.

And the NRF2 expression (NRF2)?
The NRF2 expression was “improved”.

And the “silencing of the UGT1A1 gene (MECP2)” value (UGT1A1 gene)?
Its value is “reverses this silencing”.
